# From ChEMBL document CHEMBL1201862, “PubChem BioAssay data set” (2004)
# Activity calls are given as the source filed them.
# Key:
# [1] = Luminescent dose response cell-based high throughput screening assay for inhibitors of the Janus kinase 2 mutant JAK2V617F. [Related pubchem assays: 1446 (Primary screen.), 1521 (Confirmation assay.), 1486 (Counter screen.)]; format: functional
# [2] = target: T1, Heat shock factor protein 1 (Mus musculus, UniProt P38532); assay: HSF1 potentiators in luciferase reporter cells, confirmation, cell-based, NIH3T3, luminescence, dose retest (AID 435004); format: functional;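 further: stress induced by proteasome inhibitor MG132 added 30 min after compound; luciferase reporter driven by HSF1 response element in NIH3T3 cells; actives raise luminescence as potentiators of the MG132 stress response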
# T1 sequence (P38532 whole entry): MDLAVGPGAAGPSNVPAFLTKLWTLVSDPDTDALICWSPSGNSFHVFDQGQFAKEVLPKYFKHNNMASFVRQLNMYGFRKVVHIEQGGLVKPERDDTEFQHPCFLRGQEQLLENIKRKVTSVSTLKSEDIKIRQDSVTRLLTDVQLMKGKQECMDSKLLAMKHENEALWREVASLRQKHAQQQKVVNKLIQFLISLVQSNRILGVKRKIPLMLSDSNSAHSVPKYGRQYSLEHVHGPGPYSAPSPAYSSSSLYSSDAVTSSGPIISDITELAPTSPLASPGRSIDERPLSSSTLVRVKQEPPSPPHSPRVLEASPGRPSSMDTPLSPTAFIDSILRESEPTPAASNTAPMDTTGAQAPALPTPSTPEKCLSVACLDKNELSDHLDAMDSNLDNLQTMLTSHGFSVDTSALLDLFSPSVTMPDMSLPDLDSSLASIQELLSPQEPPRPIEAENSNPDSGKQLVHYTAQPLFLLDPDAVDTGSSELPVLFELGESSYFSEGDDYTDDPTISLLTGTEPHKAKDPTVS
# fMet-Leu-Phe receptor = target: T2, fMet-Leu-Phe receptor (Homo sapiens, UniProt P21462); assay: FPR ligands, dose response (AID 519); format: functional
# T2 sequence (P21462 whole entry): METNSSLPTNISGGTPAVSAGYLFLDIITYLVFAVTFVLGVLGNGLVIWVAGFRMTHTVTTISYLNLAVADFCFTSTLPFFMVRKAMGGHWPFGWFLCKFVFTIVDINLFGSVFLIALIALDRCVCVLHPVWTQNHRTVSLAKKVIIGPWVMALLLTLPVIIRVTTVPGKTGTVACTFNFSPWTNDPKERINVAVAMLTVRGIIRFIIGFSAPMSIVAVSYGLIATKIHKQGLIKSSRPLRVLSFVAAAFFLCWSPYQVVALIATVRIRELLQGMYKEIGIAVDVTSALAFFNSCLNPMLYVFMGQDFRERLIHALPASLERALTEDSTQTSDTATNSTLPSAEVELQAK
# Paired box protein Pax-8 = Paired box protein Pax-8 (Homo sapiens, UniProt Q06710); assay: inhibitors of PAX8-driven TPO luciferase reporter, dose response, RMG-I cells, cherry-pick (AID 687027); format: functional, cell-based;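 further: luciferase reporter driven by Pax8 target thyroperoxidase promoter measured by SteadyGlo luminescence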
# [3] = NIH:OVCAR-3 ovarian cancer cell cytotoxicity, dose response, PAX8 inhibitor project, plate reader, dry powder samples (AID 743044); format: functional, cell-based
# [4] = cytotoxicity in OVCAR8 ovarian cancer cells, dose response, PAX8 project, cell-based, plate reader, dry powder samples (AID 743197); format: functional; settings: OVCAR-8
# [5] = target: Bifunctional protein GlmU (Mycobacterium tuberculosis, UniProt P9WMN3); assay: Inhibitors of Mycobacterial Glucosamine-1-phosphate acetyl transferase (GlmU). Secondary screen.; set-up: species or system Mycobacterium tuberculosis H37Rv
# [6] = target: 5-hydroxytryptamine receptor 1A (Homo sapiens, UniProt P08908); format: functional
# [7] = target: RNA-editing ligase 1, mitochondrial (Trypanosoma brucei brucei, UniProt P86926); assay: TbREL1 ligase inhibitors, dose response, biochemical, fluorescence, Trypanosoma brucei (AID 1117295); format: functional
# [8] = P. falciparum Dd2 growth inhibitors, dose response, SYBR Green, cherry-picked samples (AID 1159567); format: functional, cell-based
# [9] = HepG2 cell cytotoxicity, dose response, cytotoxicity control, cherry-picked samples (AID 1159577); format: functional, cell-based
# [10] = P. falciparum 3D7-ScDHODH growth inhibitors, dose response, SYBR Green, dry powder samples (AID 1159570); format: functional, cell-based;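 further: parasite growth measured after 72 hours of compound exposure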
# [11] = P. falciparum Dd2 growth inhibitors, dose response, SYBR Green, dry powder samples (AID 1159566); format: functional, cell-based;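 further: potency for growth inhibition with lower SYBR green DNA signal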
# [12] = P. falciparum ATP4 D1247Y mutant growth inhibitors, dose response, NITD609-resistant line, SYBR Green, dry powder (AID 1159571); format: functional, cell-based;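 further: parasites synchronized at ring stage by sorbitol before testing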
# [13] = Concentration-dependent survival of SW480 colon cancer line, luminescence detection with CellTiter-Glo, half-maximal inhibitory concentration (AID 1117338); format: functional
# [14] = RKO cell viability reduction, dose response, CellTiter-Glo luminescence (AID 1117322); format: functional
# [15] = cytotoxicity toward HCT116 cells – cell-based, CellTiter-Glo luminescence, IC50, dose response (AID 1117332); format: functional; settings: HCT-116
# [16] = SNU-C1 cell viability reduction, dose response, CellTiter-Glo luminescence (AID 1117323); format: functional, cell-based
# [17] = cytotoxicity toward Colo320 cells – cell-based, CellTiter-Glo luminescence, IC50, dose response (AID 1117334); format: functional; settings: COLO 320
# [18] = cytotoxicity toward HT-29 cells – cell-based, CellTiter-Glo luminescence, IC50, dose response (AID 1117330); format: functional
# [19] = CellTiter-Glo luminescent dose response of DLD-1 viability loss (AID 1117352); format: functional
# [20] = HCT116 cell viability decrease, GSK3B pretreatment – CellTiter-Glo, IC50, dose response (AID 1117339); format: functional; settings: HCT-116
# Chain of RNA-editing ligase 1, mitochondrial (P86926 whole entry): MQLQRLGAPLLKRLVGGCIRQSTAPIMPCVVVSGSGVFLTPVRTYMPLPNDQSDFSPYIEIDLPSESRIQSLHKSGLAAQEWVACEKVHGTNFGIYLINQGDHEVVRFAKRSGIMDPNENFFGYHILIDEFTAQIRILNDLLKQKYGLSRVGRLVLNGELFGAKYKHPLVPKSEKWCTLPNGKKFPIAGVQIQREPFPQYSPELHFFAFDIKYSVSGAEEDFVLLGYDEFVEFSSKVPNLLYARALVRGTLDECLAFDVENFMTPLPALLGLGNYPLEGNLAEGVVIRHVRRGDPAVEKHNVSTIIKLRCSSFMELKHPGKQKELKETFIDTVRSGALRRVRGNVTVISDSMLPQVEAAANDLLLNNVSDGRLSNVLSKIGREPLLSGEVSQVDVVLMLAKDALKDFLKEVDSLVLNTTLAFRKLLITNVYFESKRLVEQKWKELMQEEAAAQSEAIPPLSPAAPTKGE
# Chain of Bifunctional protein GlmU (P9WMN3 whole entry): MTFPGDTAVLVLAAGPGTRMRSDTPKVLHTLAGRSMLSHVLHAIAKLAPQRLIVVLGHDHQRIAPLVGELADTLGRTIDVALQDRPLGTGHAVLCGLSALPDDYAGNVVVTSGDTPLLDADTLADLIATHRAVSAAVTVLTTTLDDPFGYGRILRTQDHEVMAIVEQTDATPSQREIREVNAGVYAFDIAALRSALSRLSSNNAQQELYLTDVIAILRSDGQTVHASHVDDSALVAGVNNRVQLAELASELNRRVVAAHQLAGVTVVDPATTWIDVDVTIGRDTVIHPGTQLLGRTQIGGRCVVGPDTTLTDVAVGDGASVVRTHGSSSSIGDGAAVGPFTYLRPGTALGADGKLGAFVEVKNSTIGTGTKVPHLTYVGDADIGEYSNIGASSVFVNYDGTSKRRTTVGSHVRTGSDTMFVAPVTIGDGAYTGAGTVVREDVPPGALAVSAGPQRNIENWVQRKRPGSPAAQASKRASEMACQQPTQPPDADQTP
# Chain of Paired box protein Pax-8 (Q06710 whole entry): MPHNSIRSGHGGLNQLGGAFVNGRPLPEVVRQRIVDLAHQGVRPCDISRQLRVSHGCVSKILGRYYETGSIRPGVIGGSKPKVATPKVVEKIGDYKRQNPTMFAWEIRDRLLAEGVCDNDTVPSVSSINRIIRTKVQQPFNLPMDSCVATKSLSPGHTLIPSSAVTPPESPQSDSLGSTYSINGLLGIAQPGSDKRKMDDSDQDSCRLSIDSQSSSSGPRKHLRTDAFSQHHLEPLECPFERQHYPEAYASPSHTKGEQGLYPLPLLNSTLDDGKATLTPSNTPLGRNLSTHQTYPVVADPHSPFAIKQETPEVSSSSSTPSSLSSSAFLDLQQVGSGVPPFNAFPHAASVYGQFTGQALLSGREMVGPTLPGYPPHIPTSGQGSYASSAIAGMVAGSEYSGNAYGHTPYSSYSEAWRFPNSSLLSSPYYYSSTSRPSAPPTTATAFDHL
# Chain of 5-hydroxytryptamine receptor 1A (P08908 whole entry): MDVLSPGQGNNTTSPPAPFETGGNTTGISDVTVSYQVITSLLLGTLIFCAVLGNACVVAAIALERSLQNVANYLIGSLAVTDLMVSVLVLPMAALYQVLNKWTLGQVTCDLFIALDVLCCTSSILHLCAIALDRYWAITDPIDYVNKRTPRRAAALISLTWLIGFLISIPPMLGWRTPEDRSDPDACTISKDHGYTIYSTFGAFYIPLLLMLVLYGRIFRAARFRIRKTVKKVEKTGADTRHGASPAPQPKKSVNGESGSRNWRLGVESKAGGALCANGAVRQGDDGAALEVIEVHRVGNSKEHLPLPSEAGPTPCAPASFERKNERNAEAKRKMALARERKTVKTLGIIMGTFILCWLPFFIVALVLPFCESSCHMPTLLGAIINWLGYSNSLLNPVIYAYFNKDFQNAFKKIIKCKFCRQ
smiles,measurement,setting,value
Cc1cccc(OCC(=O)Nc2cc(C)ccc2O)c1,IC50,[1],676 nM (active)
same,EC50,[2],4.61 µM (active)
same,Ki,fMet-Leu-Phe receptor,> 66.7 µM (inactive)
C[C@H](CO)N1C[C@H](C)[C@@H](CN(C)Cc2ccc(Cl)c(Cl)c2)Oc2ccc(NS(=O)(=O)c3ccccc3)cc2CC1=O,AC50,Paired box protein Pax-8,9.45 µM (active)
same,AC50,[3],39.7 µM (active)
same,AC50,[4],67.9 µM (active)
Nc1nonc1C(=O)N/N=C/c1ccc(-c2cccc(C(=O)O)c2)o1,IC50,[5],188 µM (active)
CNCCc1c[nH]c2ccccc12,EC50,[6],5.1 µM (active)
C=CCNC1=NC(c2ccccc2C(F)(F)F)C(C(=O)OC)=C(C)N1Cc1ccc(C(F)(F)F)cc1 (stereo not drawn),IC50,[7],> 96.6 µM (inactive)
CCS(=O)(=O)N1CCCCN2[C@H](C1)[C@@H](c1ccc(C#Cc3ccccc3OC)cc1)[C@@H]2CO,AC50,[8],4.67 µM (active)
same,AC50,[9],> 39 µM (inactive)
COc1ccc2c3c(n(C)c2c1)[C@H](CO)NCC31CCN(Cc2ccc(Cl)cc2)CC1,AC50,[8],0.504 µM (active)
same,AC50,[9],17.7 µM (active)
COc1ccc(-c2ccccc2[C@H]2[C@@H](C#N)N(C(=O)NC(C)C)[C@H]2CO)cc1,AC50,[10],2.01 µM (active)
same,AC50,[8],2.04 µM (active)
same,AC50,[11],2.21 µM (active)
same,AC50,[12],4.81 µM (active)
O=C(O)CCC(=O)OC[C@@H](NC(=O)C(Cl)Cl)[C@H](O)c1ccc([N+](=O)[O-])cc1 [CHLORAMPHENICOL SODIUM SUCCINATE],IC50,[13],> 20 µM (inactive)
same,IC50,[14],> 20 µM (inactive)
same,IC50,[15],> 20 µM (inactive)
same,IC50,[16],> 20 µM (inactive)
same,IC50,[17],> 20 µM (inactive)
same,IC50,[18],> 20 µM (inactive)
same,IC50,[19],> 20 µM (inactive)
same,IC50,[20],> 20 µM (inactive)
CCCn1cnc2c1c(=O)n(CCCCC(C)=O)c(=O)n2C [PROPENTOFYLLINE],IC50,[13],> 20 µM (inactive)
same,IC50,[14],> 20 µM (inactive)
same,IC50,[15],> 20 µM (inactive)
same,IC50,[16],> 20 µM (inactive)
same,IC50,[17],> 20 µM (inactive)
same,IC50,[18],> 20 µM (inactive)
same,IC50,[19],> 20 µM (inactive)
same,IC50,[20],> 20 µM (inactive)
